Article PMC11893521, “Examining Farnesyltransferase Interaction With Cell‐Permeable CaaX Peptides and the Role of the CaaX Motif in Biological Activity” (Journal of Peptide Science, 2025)
Peptide text beside a SMILES is read from it.

Tests used:
rFTase = target: T1, rFTase (Rattus norvegicus, UniProt Q02293+Q04631); assay: Mass spectrometry-based farnesylation assay (rFTase); type: biochemical; settings: each peptide 18 h at 37°C with rFTase and FPP, LC-ESI-MS
T1 construct: purchased Jena Bioscience PR-102
Protocol: […] CaaX‐1 or scrambled control was incubated with 50‐nM recombinantly expressed hFTase or rFTase (Jena Bioscience, Cat#PR‐102) and 10‐μM farnesyl pyrophosphate (FPP) in reaction buffer (50‐mM Tris HCl pH 7.5, 5‐mM DTT, 5‐mM MgCl2, 10‐μM ZnCl2, and 0.2% n‐octyl‐beta‐D‐glucopyranoside) at 37°C for 18 h. Afterwards, the reaction mixture was desalted via C18 ZipTips (Merck Millipore). For this, ZipTips were washed with ACN and equilibrated in 0.1% FA in H2O. Then, the column was loaded with the reaction solution and subsequently washed with 0.1% FA in H2O and 5% MeOH in H2O each supplemented with 0.1% FA. Elution was performed using 50% ACN with 0.1% FA, and the eluted solution was analyzed by RP‐HPLC using a linear gradient of 10%–60% ACN in H2O with 0.1% FA or TFA using a flow rate of 0.6 or 1.0 mL/min, respectively, and by ESI‐MS analysis (LTQ‐XL, Thermo Scientific, Waltham, Massachusetts, USA).

HeLa cells = assay: Resazurin-based cytotoxicity assay; type: cell-based; settings: serum-free medium, 24 h, triplicate (n = 3)
Protocol: Cytotoxicity of the peptides to HeLa cells were investigated using a resazurin‐based cytotoxicity assay (Sigma Aldrich). For this, 14,000 HeLa cells were seeded in a 96‐well plate and grown in complete medium at 37°C to 80%–90% subconfluency. Cells were treated with different peptide dilutions in serum‐free medium at 37°C for 24 h. Untreated cells served as negative control and cells treated with 70% ethanol for 10 min as positive control. Cells were washed with PBS and subsequently incubated with a 10% resazurin solution in serum‐free medium for ~1 h. To determine the viability of the cells, the fluorescence was measured at 595 nm after excitation at 550 nm using a Tecan infinite M200 plate reader.

SMILES | farnesylation by rFTase (CaaX-1 versus scrambled controls) (rFTase) | cytotoxicity to HeLa cells at 100 μM (HeLa cells)
CC[C@H](C)[C@H](NC(=O)[C@H](CS)NC(=O)[C@H](CCCCN)NC(=O)[C@H](CCCCN)NC(=O)[C@H](CC(N)=O)NC(=O)[C@H](CCCNC(=N)N)NC(=O)[C@H](Cc1ccccc1)NC(=O)[C@H](CCCCN)NC(=O)[C@H](CCCNC(=N)N)NC(=O)[C@H](CC(C)C)NC(=O)[C@H](CCCNC(=N)N)NC(=O)[C@H](CCCCN)NC(=O)[C@H](CCCNC(=N)N)NC(=O)[C@H](CC(C)C)NC(=O)CN)C(=O)N[C@@H](CCCCN)C(=O)N[C@H](C(=O)N[C@@H](CCSC)C(=O)N[C@H](C(=O)N[C@@H](CO)C(=O)O)[C@@H](C)O)C(C)C [CaaX‐1hscr] (H-GLRKRLRKFRNKKCIKVMTS-OH) | lack of catalytic conversion | slight toxicity
CC[C@H](C)[C@H](N)C(=O)N[C@H](C(=O)N[C@@H](Cc1ccccc1)C(=O)N[C@@H](CCCNC(=N)N)C(=O)N[C@@H](CCCCN)C(=O)N[C@@H](CCCCN)C(=O)N[C@@H](CC(C)C)C(=O)N[C@@H](CCCNC(=N)N)C(=O)N[C@@H](CCCCN)C(=O)N[C@@H](CCCCN)C(=O)N[C@@H](CS)C(=O)N[C@@H](CO)C(=O)N[C@@H](CCCCN)C(=O)NCC(=O)N[C@@H](CC(C)C)C(=O)N[C@H](C(=O)N[C@@H](CCCNC(=N)N)C(=O)N[C@@H](CCCNC(=N)N)C(=O)N[C@@H](CC(N)=O)C(=O)N[C@@H](CCSC)C(=O)O)C(C)C)[C@@H](C)O [scrCaaX‐1] (H-ITFRKKLRKKCSKGLVRRNM-OH) | lack of catalytic conversion | –
